This note sets out measurements from US20090227816A1, “Process for preparing polybrominated compounds” (BROMINE COMPOUNDS LTD., priority 2006, published 2009).

The format of the data set is physicochemical. As for the experimental part:
The solubility of Deca in bromine was determined as 2.64 g Deca in 100 g bromine at 20° C.

Regarding `Brc1c(Br)c(Br)c(Oc2c(Br)c(Br)c(Br)c(Br)c2Br)c(Br)c1Br` [Deca, decabromodiphenyl ether], the “solubility of Deca in bromine” value was 2.64 g Deca in 100 g bromine.
